# Data as given in patent publication US5340818A, “Methods and compositions for inhibiting tumor cell growth” (priority 1993, dated 1994).
# Where “and” joins values, the source holds several entries; their conditions need not be identical. Equal values may be shown once. Entries after “also recorded” stand apart in the source; their conditions may differ. Read-outs that look alike come from different tables or passages of the source.
# What was measured:
# [1] = test system: RNA synthesis in HL-60 cells; test: Inhibition of [5-3H]Cyd incorporation into RNA of HL-60 cells; type: cell-based, human; conditions: Homo sapiens, HL-60, 0.5 h
# Method in brief: (§1)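 HL-60 cells (2.2×10^6/ml) preincubated 15 min with compound (0.03 mg/ml, 0.3% DMSO), then 30 min with [5-3H]Cyd (5 μCi, 0.23 nmol/ml) for RNA or [2,3,4,5-3H]L-Leu (0.5 μCi, 0.004 nmol/ml) for protein. Inhibition relative to DMSO-only incorporation.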
# L5178Y leukemia = conditions: ip, 28 × 1 × 10 mg/kg/day; cited from earlier work
# [2] = test system: DNA synthesis in HL-60 cells; test: Inhibition of [3H-methyl]dThd incorporation into DNA of HL-60 cells; type: cell-based, human; conditions: Homo sapiens, HL-60, at 0.03 mg/mL; read-out: % Inhibition of Precursor Incorporation, DNA
# Method in brief: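 HL-60 cells, 2.2×10^6 /ml, preincubated 15 min with compound in 0.3% DMSO, then 30 min with [3H-methyl]dThd (1 μCi, 0.15 nmole/ml). DNA incorporation compared with DMSO-only control.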
# B-16 Melanoma = test: B-16 melanoma in mice; type: in vivo, mouse; conditions: day 1 QDX4
# Description: Chemotherapeutic Effects of Acronycine and TSA-35 against Solid
# Lewis lung carcinoma = Lewis lung carcinoma survival time evaluation in C57BL/6 mice; type: in vivo, mouse; parameters: Survival Time, individual mice / AST (average survival time): unit not given here; conditions: for AST (average survival time) / Day #7 AWC (average weight change) / N/T (29 day survivors/total mice) / Survival Time, individual mice / % ILS (increase in lifespan): day 1, QDX4 ip; for % ILS (increase in lifespan): 25% or greater indicates activity
# Description: Tumor-Lewis Lung C. 3 × 10^5 cells (ip) in C57BL/6, FEM, 19-21
# (§2) Diluent-CMC + 1 drop Tween 80
# (§3) Schedule: Day 1, QDX4 (ip)
# [3] = test system: protein synthesis in HL-60 cells; test: Inhibition of [2,3,4,5-3H]L-Leu incorporation into protein of HL-60 cells; type: cell-based, human; conditions: Homo sapiens
# Method in brief: as §1
# Carcinoma EO771 = Carcinoma EO771 (E07713 mammary adenocarcinoma) survival time evaluation in C57BL/6 mice; type: in vivo
# Description: Tumor-Carcinoma EO771 3 × 10^5 cells (ip) in C57BL/6, FEM,
# as §2, §3
# HL-60 cells = test: HL-60 cell growth inhibition, 72 h; type: cell-based, human; conditions: HL-60, 72 h; for IC50: read-out: Cell Growth Inhibition, IC50
# Method in brief: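 HL-60 cells seeded at 1.5×10^5/ml in RPMI 1640, exposed 72 h at 37° C, 5% CO2 to compound at 0.0025-0.05 mg/ml in 0.1% DMSO. Viable cells counted by trypan blue exclusion; IC50 from median-effect analysis over three to five dose levels versus DMSO control.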
# C1498 leukemia = conditions: ip, 28 × 1 × 10 mg/kg/day; cited from earlier work
# L1210/0 cells = test: Cross-resistance studies: growth inhibition of doxorubicin-sensitive L1210/0 cells; type: cell-based; conditions: L1210/0 (doxorubicin sensitive)
# [4] = Table 8, 25 mg/kg ip, day 1 QDX4
# [5] = Table 8, 50 mg/kg ip, day 1 QDX4
# [6] = Table 8, 100 mg/kg ip, day 1 QDX4
# [7] = Table 8, 150 mg/kg ip, day 1 QDX4
smiles,measurement,setting,value
"COc1cc2c(c3c1c(=O)c1ccccc1n3C)C=CC(C)(C)O2 [Compound 1, Acronycine]",inhibition at 30 µg/mL,"[1]; read-out: % Inhibition of Precursor Incorporation, RNA, at 0.03 mg/mL",21.3%
same,Percent activity,L5178Y leukemia,62%
same,inhibition at 30 µg/mL,[2],~90%
same,% ILS,B-16 Melanoma; 50 mg/kg ip,24%
same,Day 7 BWC (body weight change),B-16 Melanoma; 50 mg/kg ip,-0.6 g
same,N/T (40 day tumorfree mice/total),B-16 Melanoma; 50 mg/kg ip,0/5
same,AST (average survival time),Lewis lung carcinoma; 25 mg/kg,14.6
same,Day #7 AWC (average weight change),Lewis lung carcinoma; 25 mg/kg,-0.6 g
same,N/T (29 day survivors/total mice),Lewis lung carcinoma; 25 mg/kg,0/5
same,"Survival Time, individual mice",Lewis lung carcinoma; 25 mg/kg,14 and 17
same,% ILS (increase in lifespan),Lewis lung carcinoma; 25 mg/kg,40%
same,AST (average survival time),Lewis lung carcinoma; 50 mg/kg,14.6
same,Day #7 AWC (average weight change),Lewis lung carcinoma; 50 mg/kg,-0.8 g
same,N/T (29 day survivors/total mice),Lewis lung carcinoma; 50 mg/kg,0/5
same,"Survival Time, individual mice",Lewis lung carcinoma; 50 mg/kg,14 and 15
same,% ILS (increase in lifespan),Lewis lung carcinoma; 50 mg/kg,40%
same,% ILS,Lewis lung carcinoma; [4],40%
same,Day 7 BWC (body weight change),Lewis lung carcinoma; [4],-0.6 g
same,N/T (40 day tumorfree mice/total),Lewis lung carcinoma; [4],0/5
same,% ILS,Lewis lung carcinoma; [5],34%
same,Day 7 BWC (body weight change),Lewis lung carcinoma; [5],-0.5 g
same,N/T (40 day tumorfree mice/total),Lewis lung carcinoma; [5],0/15
same,N/T (40 day tumorfree mice/total),Lewis lung carcinoma; [6],0/5
same,death,Lewis lung carcinoma; [6],5/5
same,inhibition at 30 µg/mL,"[3]; HL-60, read-out: % Inhibition of Precursor Incorporation, Protein, at 0.03 mg/mL",25.4%
same,AST (average survival time),"Carcinoma EO771; 50 mg/kg, day 1, QDX4 ip",13.4
same,Day #7 AWC (average weight change),"Carcinoma EO771; 50 mg/kg, day 1, QDX4 ip",+0.4 g
same,N/T (22 day survivors/total mice),"Carcinoma EO771; 50 mg/kg, day 1, QDX4 ip",0/5
same,"Survival Time, individual mice","Carcinoma EO771; 50 mg/kg, day 1, QDX4 ip",11 and 14 and 17
same,% ILS (increase in lifespan),"Carcinoma EO771; 50 mg/kg, day 1, QDX4 ip, 25% or greater indicates activity",26%
same,toxicity induced deaths,Carcinoma EO771; 100 mg/kg daily for 4 days ip,1 out of 3
same,AST (average survival time),"Carcinoma EO771; 100 mg/kg, day 1, QDX4 ip",11.0
same,Day #7 AWC (average weight change),"Carcinoma EO771; 100 mg/kg, day 1, QDX4 ip",+0.5 g
same,N/T (22 day survivors/total mice),"Carcinoma EO771; 100 mg/kg, day 1, QDX4 ip",0/3
same,% ILS (increase in lifespan),"Carcinoma EO771; 100 mg/kg, day 1, QDX4 ip, 25% or greater indicates activity",4%
same,"Survival Time, individual mice","Carcinoma EO771; 100 mg/kg, day 1, QDX4 ip, t = died of toxicity",4t and 10 and 12
same,% ILS,Carcinoma EO771; [5],26%
same,Day 7 BWC (body weight change),Carcinoma EO771; [5],+0.4 g
same,N/T (40 day tumorfree mice/total),Carcinoma EO771; [5],0/5
same,% ILS,Carcinoma EO771; [6],4%
same,N/T (40 day tumorfree mice/total),Carcinoma EO771; [6],0/3
same,death,Carcinoma EO771; [6],1/3
same,"cell growth inhibition, in words",HL-60 cells,significantly active
same,Percent activity,C1498 leukemia,79(7) Percent
"COc1c(OC)c(OC)c2c(c1O)c(=O)c1ccc(O)c(OC)c1n2C [Compound 31, Glyfoline]",inhibition at 30 µg/mL,"[1]; at 0.03 mg/mL, read-out: % Inhibition of Precursor Incorporation, RNA",65.7%
same,inhibition at 30 µg/mL,[2],93.5%
same,% ILS,B-16 Melanoma; 25 mg/kg ip,31%
same,N/T (40 day tumorfree mice/total),B-16 Melanoma; 25 mg/kg ip,0/5
same,% ILS,B-16 Melanoma; 50 mg/kg ip,40%
same,N/T (40 day tumorfree mice/total),B-16 Melanoma; 50 mg/kg ip,0/5
same,% ILS,B-16 Melanoma; 150 mg/kg ip,> 56%
same,N/T (40 day tumorfree mice/total),B-16 Melanoma; 150 mg/kg ip,1/5
same,AST (average survival time),Lewis lung carcinoma; 25 mg/kg,14.8
same,N/T (29 day survivors/total mice),Lewis lung carcinoma; 25 mg/kg,0/5
same,% ILS (increase in lifespan),Lewis lung carcinoma; 25 mg/kg,42%
same,"Survival Time, individual mice","Lewis lung carcinoma; 25 mg/kg, listed as TSA-35",14 and 18
same,AST (average survival time),Lewis lung carcinoma; 50 mg/kg,> 20
same,N/T (29 day survivors/total mice),Lewis lung carcinoma; 50 mg/kg,2 out of 5
same,% ILS (increase in lifespan),Lewis lung carcinoma; 50 mg/kg,> 92%
same,N/T (29 day survivors/total mice),"Lewis lung carcinoma; 50 mg/kg, listed as TSA-35",2/5
same,"Survival Time, individual mice","Lewis lung carcinoma; 50 mg/kg, listed as TSA-35",14 and > 29
same,% ILS,Lewis lung carcinoma; [4],42%
same,N/T (40 day tumorfree mice/total),Lewis lung carcinoma; [4],0/5
same,% ILS,Lewis lung carcinoma; [5],> 59%
same,N/T (40 day tumorfree mice/total),Lewis lung carcinoma; [5],2/15
same,% ILS,Lewis lung carcinoma; [6],> 46%
same,N/T (40 day tumorfree mice/total),Lewis lung carcinoma; [6],1/10
same,% ILS,Lewis lung carcinoma; [7],> 79%
same,N/T (40 day tumorfree mice/total),Lewis lung carcinoma; [7],2/8
same,"toxicity to mice, in words","Lewis lung carcinoma; mouse, in vivo",less toxicity to mice than that of compound 1
same,Day 7 BWC (body weight change),"Lewis lung carcinoma; mouse, in vivo, ip, 25 mg/kg",+0.2 g
same,Day 7 BWC (body weight change),"Lewis lung carcinoma; mouse, in vivo, ip, 50 mg/kg",+0.3 g
same,Day 7 BWC (body weight change),"Lewis lung carcinoma; mouse, in vivo, ip, 100 mg/kg",+0.5 g
same,Day 7 BWC (body weight change),"Lewis lung carcinoma; mouse, in vivo, ip, 150 mg/kg",-0.3 g
same,inhibition at 30 µg/mL,"[3]; HL-60, at 0.03 mg/mL, read-out: % Inhibition of Precursor Incorporation, Protein",90.7%
same,AST (average survival time),"Carcinoma EO771; 50 mg/kg, day 1, QDX4 ip",12.4
same,N/T (22 day survivors/total mice),"Carcinoma EO771; 50 mg/kg, day 1, QDX4 ip",0/5
same,"Survival Time, individual mice","Carcinoma EO771; 50 mg/kg, day 1, QDX4 ip, listed as TSA-35",10 and 11 and 12 and 14 and 15
same,AST (average survival time),"Carcinoma EO771; 100 mg/kg, day 1, QDX4 ip",> 15
same,N/T (22 day survivors/total mice),"Carcinoma EO771; 100 mg/kg, day 1, QDX4 ip",1/3
same,"Survival Time, individual mice","Carcinoma EO771; 100 mg/kg, day 1, QDX4 ip, t = died of toxicity, listed as TSA-35",11 and > 22
same,% ILS (increase in lifespan),"Carcinoma EO771; ip, 50 mg/kg, 24 h",17%
same,% ILS (increase in lifespan),"Carcinoma EO771; ip, 100 mg/kg, 24 h",> 39%
same,toxicity induced deaths,"Carcinoma EO771; mouse, in vivo",no deaths
same,Day 7 BWC (body weight change),"Carcinoma EO771; mouse, in vivo, ip, 25 mg/kg",+0.6 g
same,Day 7 BWC (body weight change),"Carcinoma EO771; mouse, in vivo, ip, 50 mg/kg",+0.3 g
same,"Cell Growth Inhibition, IC50",HL-60 cells,0.4 µg/mL
same,"cell growth inhibition, in words",HL-60 cells,most potent compound in this series; also recorded: significant activity against leukemic cells in vitro
same,IC50,HL-60 cells,1110 nM
same,IC50,HL-60 cells; Homo sapiens,0.4 µg/mL and 1.1 µM
same,IC50,L1210/0 cells,2090 nM
